Measured values taken from patent publication US4423029A, “(S)-3-Amino-4-[(S,S)-1-(1-hydroxyethyl)alkyl amino]-4-oxo-butyric acid compounds suitable as non-nutritive sweetners” (The Procter & Gamble Company, priority 1981, dated 1983).
Values after ≈ are worked out from the molar mass of the structure shown. “Also recorded” adds a separate entry of the source. Where two headings read alike, the source gives them in different places. Residues, ends and D or L forms follow the SMILES beside them.

Tests used:
[1] = cited from earlier work; for taste: in words; for sweetness intensity: L-aspartic acid alkyl amides, Mazur et al. 1970
[2] = cited from earlier work; for half-life: pH 4
[3] = Amide bond cleavage by rat intestine homogenate; format: in vitro ADME; settings: pH 7.0, 37° C., up to two hours, standardized to Aspartame/rat = 100
Description: (§1) This aspartic acid has the same caloric value as sugar, on a per-gram basis. These aspartic acid amide sweeteners are therefore not non-nutritive, but, rather, low calorie. In addition, the other molecular fragment released as a result of amide cleavage is frequently a non-physiological amine. It was therefore considered appropriate to gauge the rate of amide cleavage of compound (II) by digestive enzymes in evaluating both the calorigenic and the toxicologic potential of compounds of this invention.
(§2) Assays were performed in the following manner:
(§3) Aliquots of four mM solutions of test compounds in 100 mM potassium phosphate buffer solution at pH 7.0 were incubated at 37° C. (98.6° F.) for up to two hours with a standardized amount of animal intestine homogenate containing digestive enzymes. At the end of the incubation period, the enzymes were inactivated by boiling and the extent of amide bond hydrolysis was quantified by measurement of free L-aspartic acid in the solution. This was done by incubating a sample of the test solution with enzymes and substrates that convert L-aspartate to L-malate with concomitant oxidation of a pyridine nucleotide having a characteristic absorbance at 340 nanometers. The decrease in optical density at this wavelength is proportional to the amount of L-aspartate generated by amide bond hydrolysis.

[4] = in words; cited from earlier work
[5] = Amide bond cleavage by monkey intestine homogenate; format: in vitro ADME; settings: pH 7.0, 37° C., up to two hours, standardized to Aspartame/rat = 100
Description: as §1, §2, §3

[6] = in words; cited from earlier work; remark: listed apart in the source
[7] = Hydrolytic stability in aqueous phosphate buffer; format: physicochemical; settings: for remaining at 360 h / half-life: 0.02 m phosphate buffer; for remaining at 360 h: read-out: % Remaining After 15 Days; for half-life: 0.02 M phosphate
Description: Stability tests were performed on the compound of formula (II) to determine the sweetener's resistance to hydrolysis under varying conditions.
The tests were performed using solutions of (II) in aqueous phosphate buffer, 0.02 M, at pH 3.5 and 6.9. The solutions were incubated at ~43° C. (110° F.), ~54° C. (130° F.), and ~66° C., (150° F.) for up to 32 days.
Samples from the test solutions were withdrawn at regular intervals and analyzed by reversed-phase high performance liquid chromatography for remaining intact (II), using the following conditions:
Column: 25 cm×0.4 cm I.D. stainless steel packed with Lichrosorb RP-18, 5μ particle size.
Mobile phase: Acetonitrile/0.01 M phosphate buffer (155/845 v/v), pH 6.
Detection: UV absorbance at 220 nm (~2200 Å). Results were quantified by comparison with standard solutions kept frozen during the tests. Peak heights were measured for replicate injections.
By use of the Arrhenius equation, [formula] where k is the specific reaction velocity, T is the absolute temperature (°K.), A is the activation energy constant, t is time, and R is the gas law constant, change in the rate of a first-order chemical reaction with temperature can be calculated. The half-life of (II) at ambient temperature and pH 6.9 is estimated to be 760 days (>2 yrs).

[8] = Resistance to hydrolysis by digestive enzymes (statement in words); format: in vitro ADME, animal
Description: as §1, §2
as §3, with “hydrolysis. […]” for “hydrolysis.”

[9] = Taste evaluation (human taste panel, comparison with sucrose standards); format: in vivo, Male subjects; settings: for taste / sweetness quality: in words
Description: The taste quality and sweetness intensity of the compounds of the present invention were determined by the following procedure.
Male subjects were selected at random from a group of about 20 persons who had previously been selected on the basis of proven tasting acuity, i.e., persons who could easily recognize the four basic tastes (sweet, sour, bitter and salty) and who were adept at quantifying their own physiological response numerically. The subjects were asked to taste and expectorate about 10 ml of a sample at about 22° C. containing dissolved test material. The subjects were then asked to compare the sweetness (and other taste qualities) of the test solution with four or five standard coded samples which contained increasing amounts of sucrose. Sweetness intensity of the unknown material was recorded by the subject making a mark on a coded closed linear scale at a point they considered equal in sweetness among the standards; interpolation between standards was encouraged. After completion of the panel, a four or five point (1-4 or 1-5, depending on the number of standards) numeric scale was superimposed on the coded linear scales to obtain numerical data; data were averaged and recorded to the nearest 0.25 unit. Equivalent sucrose sweetness was determined by referring to graphs of (w/v) sucrose concentration and standards versus a linear numeric scale.
Sweetness intensity was calculated by dividing the concentration (w/v) of perceived sweetness by the concentration (w/v) of test material required to produce that sweetness. Most taste comparisons were made in the range of 5-10% sucrose sweetness.
The five point scale with standards ranging from 1.37% (0.040 M) to 11.97% (0.35 M) sucrose usually sufficed to bracket the sweet intensity of a test sample. However, in the cases of beverage prototypes it was more meaningful to use prototype beverage solutions containing 2.5, 5.0, 10.0, 15.0 and 20.0% sucrose as standards. In all cases, evaluation of sweetness intensity in terms of sucrose equivalents was made with reference to graphs which related sucrose concentration and standard prototypes to the particular (arbitrary) scale units employed.
In tests in which taste quality was estimated, the subjects were asked to describe the initial taste and aftertaste in terms of percent sweet, sour, bitter, salty and "other", totalling 100%. In all tests, bottled spring water was used for rinsing between samples.

[10] = Aqueous solubility and calculated maximum effective sweetening power; format: physicochemical; settings: for solubility / Calculated Maximum Effective Sweetening Power: approximate (~)
Description: The solubility of compound (II) was determined in standard fashion. Water at pH 7 and 20° C. was used, except where indicated.
Because sweetness tends to plateau at higher concentrations of high intensity sweeteners, these calculations overestimate the actual sweetening power of the compounds of this invention.

[11] = pH 3.5, .02M Phosphate Buffer at 54° C.
[12] = pH 7, .02M Phosphate Buffer at 54° C.

Question: With `CC(C)CC(C)NC(=O)[C@@H](N)CC(=O)O` (some centres unmarked) [1,3-dimethylbutyl] as the compound, how does the taste [1] read?
Answer: Its taste is “bitter”.

Question: Which half-life ([2]; 40° C.) does the source give for `COC(=O)[C@H](Cc1ccccc1)NC(=O)[C@@H](N)CC(=O)O` [Aspartame, L-aspartyl-L-phenylalanine methyl ester] (H-Asp-Phe-OMe) here?
Answer: The half-life was 68 days.

Question: What about the half-life ([2]; 55° C.) of the same compound?
Answer: Its half-life is 16 days.

Question: What about the “stability in aqueous media” value ([2]; in words) of the same compound?
Answer: The value was “hydrolyzes rapidly in aqueous media to non-sweet compounds”.

Question: What about the “% Remaining After 15 Days” value ([2]; pH 3.5, 54° C., comparable data from literature) of the same compound?
Answer: The value was 50%.

Question: And the “% Remaining” value ([2]; pH 7, 54° C., at 1 day, comparable data from literature)?
Answer: The value was 0%.

Question: What about the “Relative rate of amide bond cleavage” value [3] of the same compound?
Answer: The value was 100.

Question: And the taste [1]?
Answer: Its taste is “high quality sweetness; also recorded: free of unpleasant aftertaste”.

Question: What about the “hydrolysis by gut enzymes” value [4] of the same compound?
Answer: The value was “readily converted to L-aspartic acids by enzymes in the gut”.

Question: And the “Relative rate of amide bond cleavage” value [5]?
Answer: Its value is 157.

Question: With `CC(C)CCCC(C)N` (centres unmarked) [1,5-dimethylhexylamine] as the compound, how does the pharmacological activity [6] read?
Answer: Its pharmacological activity is “vasopressor and myocardial stimulant activity”.

Question: With `CCCCCCCNC(=O)[C@@H](N)CC(=O)O` [heptyl] as the compound, how does the sweetness intensity [1] read?
Answer: The sweetness intensity was 1-2 X sucrose.

Question: What about the taste [1] of the same compound?
Answer: Its taste is “sweet”.

Question: Which results are given for `CC(C)CCCC(C)NC(=O)[C@@H](N)CC(=O)O` (some centres unmarked)?
Answer: Relative rate of amide bond cleavage [3]: 38; Relative rate of amide bond cleavage [5]: 68

Question: For `CCCCCCNC(=O)[C@@H](N)CC(=O)O` [hexyl], which sweetness intensity [1] is on record?
Answer: The sweetness intensity was 1-2 X sucrose.

Question: And the taste [1]?
Answer: Its taste is “sweet”.

Question: Which taste [1] does the source give for `O=C1NS(=O)(=O)c2ccccc21` [saccharin] here?
Answer: The taste was “bitter aftertaste”.

Question: For `CCCCCC(C)NC(=O)[C@@H](N)CC(=O)O` (some centres unmarked) [1-methylhexyl], which sweetness intensity [1] is on record?
Answer: The sweetness intensity was 20-50 X sucrose.

Question: What about the taste [1] of the same compound?
Answer: Its taste is “sweet”.

Question: For `CC(C)CCC(CO)NC(=O)[C@@H](N)CC(=O)O` (some centres unmarked), which remaining at 360 h [7, 11] is on record?
Answer: Its remaining at 360 h is 88%.

Question: What about the remaining at 360 h [7, 12] of the same compound?
Answer: The remaining at 360 h was 72%.

Question: For `CCCC(CC)NC(=O)[C@@H](N)CC(=O)O` (some centres unmarked) [Compound 1-ethylbutyl], which taste [1] is on record?
Answer: Its taste is “bitter”.

Question: Which sweetness intensity [1] does the source give for `CCC(C)CC(C)NC(=O)[C@@H](N)CC(=O)O` (some centres unmarked) [1,3-dimethylpentyl] here?
Answer: The sweetness intensity was 1-2 X sucrose.

Question: And the taste [1]?
Answer: The taste was “sweet”.

Question: For `CCCCCCC(C)NC(=O)[C@@H](N)CC(=O)O` (some centres unmarked) [1-methylheptyl], which sweetness intensity [1] is on record?
Answer: Its sweetness intensity is 10 X sucrose.

Question: What about the taste [1] of the same compound?
Answer: Its taste is “sweet”.

Question: For `COc1ccc(CCC(=O)c2c(O)cc(O[C@@H]3O[C@H](CO)[C@@H](O)[C@H](O)[C@H]3O[C@@H]3O[C@@H](C)[C@H](O)[C@@H](O)[C@H]3O)cc2O)cc1O` [Neohesperidin dihydrochalcone], which taste [1] is on record?
Answer: Its taste is “the sweetness is slow to develop and it has a licorice-like aftertaste”.

Question: With `CCCCCC(CO)NC(=O)[C@@H](N)CC(=O)O` (some centres unmarked) as the compound, how does the “Relative rate of amide bond cleavage” value [3] read?
Answer: The value was 35.

Question: For `N[C@@H](CC(=O)O)C(=O)N[C@H](CO)Cc1ccccc1`, which “Relative rate of amide bond cleavage” value [3] is on record?
Answer: Its value is 19.

Question: For `CC(C)CCCNC(=O)[C@@H](N)CC(=O)O` [4-methylpentyl], which taste [1] is on record?
Answer: Its taste is “tasteless”.

Question: Which “Relative rate of amide bond cleavage” value [3] does the source give for `CC(C)CC[C@@H](CO)NC(=O)[C@@H](N)CC(=O)O` here?
Answer: Its value is 35.

Question: What about the “Relative rate of amide bond cleavage” value [5] of the same compound?
Answer: Its value is 103.

Question: With `CCCC(C)NC(=O)[C@@H](N)CC(=O)O` (some centres unmarked) [1-methylbutyl] as the compound, how does the taste [1] read?
Answer: The taste was “tasteless”.

Question: Which results are given for `CC(C)CC[C@H](NC(=O)[C@@H](N)CC(=O)O)[C@H](C)O` [Compound II, (S)-3-amino-4-[(S,S)-1-(1-hydroxyethyl)-4-methyl-pentylamino]-4-oxo-butyric acid]?
Answer: resistance to enzymatic hydrolysis [8]: resistant to enzymatic hydrolysis; sweetness intensity ([9]; Lemonade): 85 × sucrose; sweetness intensity ([9]; Water): 60 × sucrose; sweetness relative to sucrose ([9]; at an 8% sucrose sweetness level): approximately 60 times; taste / sweetness quality [9]: sweetness quality comparable to sucrose; also recorded: sweet in both aqueous solution and granular form; taste / sweetness quality ([9]; listed as (S,S,S) compound): sweet; Relative rate of amide bond cleavage [3]: 0; half-life ([7]; pH 3.5, 54° C., pH start 3.5 (end 4.3)): 57 days; half-life ([7]; pH 3.5, 66° C., pH start 3.5 (end 4.8)): 17 days; half-life ([7]; pH 6.9, 43° C., pH start 6.9 (end 6.8)): 148 days; half-life ([7]; pH 6.9, 54° C., pH start 6.9 (end 6.09)): 64 days; half-life ([7]; pH 6.9, 66° C., pH start 6.9 (end 7.5)): 22 days; remaining at 360 h [7, 11]: 82%; remaining at 360 h [7, 12]: 86%; stability in aqueous media ([7]; in words): stable in moderately alkaline, neutral and moderately acidic aqueous media; reaction order of hydrolysis ([7]; log (% (II) intact) versus time): consistent with a reaction following first order kinetics; solubility ([10]; Water, pH 7, 20° C.): 30 to 40 mg/mL (≈ 115 to 154 mM); Calculated Maximum Effective Sweetening Power ([10]; Water): 180-240 g % sucrose equivalent; solubility in water ([10]; in words): surprisingly soluble in water; Calculated Maximum Effective Sweetening Power ([10]; lemonade): 255-340 g % sucrose equivalent; solubility ([10]; lemonade, ditto mark): 30 to 40 mg/mL (≈ 115 to 154 mM); Relative rate of amide bond cleavage [5]: 0

Question: With `CC(C)CCC(C)NC(=O)[C@@H](N)CC(=O)O` (some centres unmarked) [1,4-dimethylpentyl] as the compound, how does the sweetness intensity [1] read?
Answer: Its sweetness intensity is 50-100 X sucrose.

Question: What about the taste [1] of the same compound?
Answer: The taste was “sweet”.

Question: With `CCCCC(C)NC(=O)[C@@H](N)CC(=O)O` (some centres unmarked) [1-methylpentyl] as the compound, how does the sweetness intensity [1] read?
Answer: Its sweetness intensity is 30 X sucrose.

Question: And the taste [1]?
Answer: Its taste is “sweet”.

Question: For `CC(C)C[C@@H](CO)NC(=O)[C@@H](N)CC(=O)O`, which “Relative rate of amide bond cleavage” value [3] is on record?
Answer: Its value is 11.

Question: Which “Relative rate of amide bond cleavage” value [3] does the source give for `N[C@@H](CC(=O)O)C(=O)Nc1ccc2ccccc2c1` here?
Answer: The value was 4.
